One assay deals with T1, recombinant human secreted phospholipase A2 (Homo sapiens, UniProt P14555).
T1 sequence (P14555 21-144): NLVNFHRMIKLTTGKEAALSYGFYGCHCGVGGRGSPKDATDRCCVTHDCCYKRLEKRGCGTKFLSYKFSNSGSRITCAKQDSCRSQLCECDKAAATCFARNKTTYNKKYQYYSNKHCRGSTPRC
Kind of assay: Chromogenic assay for inhibitors of recombinant human secreted phospholipase A2 (Assay Example 1). The class given is biochemical. The settings on record: compounds of formula 2; diheptanoyl thio-PC substrate, pH 7.5, absorbance at 405 nm. An excerpt: The following chromogenic assay procedure was used to identify and evaluate inhibitors of recombinant human secreted phospholipase A2. The assay described herein has been adapted for high volume screening using 96 well microtiter plates. A general description of this assay method is found in the article, “Analysis of Human Synovial Fluid Phospholipase A2 on Short Chain Phosphatidylcholine-Mixed Micelles: Development of a Spectrophotometric Assay Suitable for a Microtiterplate Reader”, by Laure J. Reynolds, Lori L. Hughes, and Edward A Dennis, Analytical Biochemistry, 204, pp. 190-197, 1992 (the disclosure of which is incorporated herein by reference):
Bovine Serum Albumin (fatty acid free) (1 g/L)
(Sigma A-7030, product of Sigma Chemical Co. St. Louis Mo., USA) […]
pH 7.5 (adjust with NaOH)
Adjust pH to 4.5 with acetic acid
5,5′-dithiobis-2-nitrobenzoic acid
Racemic Diheptanoyl Thio—PC racemic 1,2-bis(heptanoylthio)-1,2-dideoxy-sn-glycero-3-phosphorylcholine TRITON X-100™ prepare at 6.249 mg/ml in reaction buffer to equal […]
TRITON X-100™ is a polyoxy ethylene non-ionic
A measured volume of racemic dipheptanoyl thio PC supplied in chloroform at a concentration of 100 mg/ml is taken to dryness and redissolved in 10 millimolar TRITON X-100™ nonionic detergent aqueous solution. Reaction Buffer is added to the solution, then DTNB to give the Reaction Mixture.
The reaction mixture thus obtained contains 1 mM diheptanoly thio-PC substrate, 0.29 mm Triton X-100™ detergent, and 0.12 mm DTMB in a buffered aqueous solution at pH 7.5.
1. Add 0.2 ml reaction mixture to all wells;
2. Add 10 ul test compound (or solvent blank) to appropriate wells, mix 20 seconds;
3. Add 50 nanograms of sPLA2 (10 microliters) to appropriate wells;
4. Incubate plate at 40° C. for 30 minutes;
5. Read absorbance of wells at 405 nanometers with an automatic plate reader.
All compounds were tested in triplicate. Typically, compounds were tested at a final concentration of 5 ug/ml. […] Lack of color development at 405 nanometers evidenced inhibition. Compounds initially found to be active were reassayed to confirm their activity and, if sufficiently active, IC50 values were determined. […] In all cases, % inhibition measured at 405 nanometers generated by enzyme reactions containing inhibitors relative to the uninhibited control reactions was determined. Each sample was titrated in triplicate and result values were averaged for plotting and calculation of IC50 values. IC50 were determined by plotting log concentration versus inhibition values in the range from 10-90% inhibition.
As a reminder, the IC50 is the concentration that inhibits the measured activity by half. In the case of `NC(=O)COc1cccc2c1c1c(C(N)=O)cccc1n2Cc1ccccc1` [Compound 2a, [[5-Carbamoyl-9-(phenylmethyl)carbazol-4-yl]oxy]acetamide], the IC50 stood at 151 nM. Same read-out and setting: in the case of `CCNC(=O)COc1cccc2c1c1c(C(N)=O)cccc1n2Cc1ccccc1` [Compound 2b, [[5-Carbamoyl-9-(phenylmethyl)carbazol-4-yl]oxy]-N-(ethyl)acetamide] it was 273 nM.

The assay is the same for the next values; noted with them: compounds of formula 3; diheptanoyl thio-PC substrate, pH 7.5, absorbance at 405 nm.
For the compound `COC(=O)CNC(=O)COc1cccc2c1c1c(C(N)=O)cccc1n2Cc1ccccc1` [Compound 3a, N-[[[5-Carbamoyl-9-(phenylmethyl)carbazol-4-yl]oxy]acetyl]glycine methyl ester], the IC50 came out at 383 nM. As to `COC(=O)[C@H](C)NC(=O)COc1cccc2c1c1c(C(N)=O)cccc1n2Cc1ccccc1` [Compound 3b, N-[[[5-Carbamoyl-9-(phenylmethyl)carbazol-4-yl]oxy]acetyl]-L-alanine Methyl Ester], the IC50 worked out at 205 nM. As for `COC(=O)[C@H](CC(C)C)NC(=O)COc1cccc2c1c1c(C(N)=O)cccc1n2Cc1ccccc1` [Compound 3c, N-[[[5-Carbamoyl-9-(phenylmethyl)carbazol-4-yl]oxy]acetyl]-L-leucine Methyl Ester], the IC50 turned out to be 67.5 nM. Same read-out and setting: next, `COC(=O)C[C@H](NC(=O)COc1cccc2c1c1c(C(N)=O)cccc1n2Cc1ccccc1)C(=O)OC` [Compound 3d, N-[[[5-Carbamoyl-9-(phenylmethyl)carbazol-4-yl]oxy]acetyl]-L-aspartic Acid Dimethyl Ester]: 513 nM; `COC(=O)CC[C@H](NC(=O)COc1cccc2c1c1c(C(N)=O)cccc1n2Cc1ccccc1)C(=O)OC` [Compound 3e, N-[[[5-Carbamoyl-9-(phenylmethyl)carbazol-4-yl]oxy]acetyl]-L-glutamic Acid Dimethyl Ester]: 709 nM; `COC(=O)[C@H](CCSC)NC(=O)COc1cccc2c1c1c(C(N)=O)cccc1n2Cc1ccccc1` [Compound 3f, N-[[[5-Carbamoyl-9-(phenylmethyl)carbazol-4-yl]oxy]acetyl]-L-methionine Methyl Ester]: 263 nM. For the compound `COC(=O)[C@H](Cc1ccccc1)NC(=O)COc1cccc2c1c1c(C(N)=O)cccc1n2Cc1ccccc1` [Compound 3g, N-[[[5-Carbamoyl-9-(phenylmethyl)carbazol-4-yl]oxy]acetyl]-L-phenylalanine Methyl Ester], the IC50 was found to be 8600 nM.

The same assay, now with this note: compounds of formula 4; diheptanoyl thio-PC substrate, pH 7.5, absorbance at 405 nm.
In the case of `NC(=O)c1cccc2c1c1c(OCC(=O)NCC(=O)O)cccc1n2Cc1ccccc1` [Compound 4a, N-[[[5-Carbamoyl-9-(phenylmethyl)carbazol-4-yl]oxy]acetyl]glycine], the IC50 is 118 nM. Same read-out and setting: next, `CC(C)C[C@H](NC(=O)COc1cccc2c1c1c(C(N)=O)cccc1n2Cc1ccccc1)C(=O)O` [Compound 4c, N-[[[5-Carbamoyl-9-(phenylmethyl)carbazol-4-yl]oxy]acetyl]-L-leucine]: 16.1 nM; `NC(=O)c1cccc2c1c1c(OCC(=O)N[C@@H](CC(=O)O)C(=O)O)cccc1n2Cc1ccccc1` [Compound 4d, N-[[[5-Carbamoyl-9-(phenylmethyl)carbazol-4-yl]oxy]acetyl]-L-aspartic Acid]: 99.2 nM; `NC(=O)c1cccc2c1c1c(OCC(=O)N[C@@H](CCC(=O)O)C(=O)O)cccc1n2Cc1ccccc1` [Compound 4e, N-[[[5-Carbamoyl-9-(phenylmethyl)carbazol-4-yl]oxy]acetyl]-L-glutamic Acid]: 61.2 nM.

For the compound `CSCC[C@H](NC(=O)COc1cccc2c1c1c(C(N)=O)cccc1n2Cc1ccccc1)C(=O)O` [Compound 4f, N-[[[5-Carbamoyl-9-(phenylmethyl)carbazol-4-yl]oxy]acetyl]-L-methionine], the IC50 was 103 nM. Still for that read-out and setting: in the case of `NC(=O)c1cccc2c1c1c(OCC(=O)N[C@@H](Cc3ccccc3)C(=O)O)cccc1n2Cc1ccccc1` [Compound 4g, N-[[[5-Carbamoyl-9-(phenylmethyl)carbazol-4-yl]oxy]acetyl]-L-phenylalanine] it was 324 nM.

The values above are taken from US20030096854A1, “Substituted tricyclics” (priority 2002, published 2003).
